Test results from patent US11807835B2, “Detergent compositions containing a stabilized enzyme by phosphonates” (ECOLAB USA INC., priority 2016, dated 2023).

System: amylase
Test: Amylase activity retention in detergent use solution (4000 ppm, 5 GPG water; ethylidene substrate EPS, HEPES buffer pH 8.0)
Format: biochemical
Procedure: The enzyme activities in the detergents with different phosphonate levels were tested at 4000 ppm in 5 grains per gallon (GPG) water at 120° F. with various time points collected up to 4 hours, after a use solution was generated from the detergent composition. During the tests, the samples at different time points were collected and immediately frozen in an acetone/dry ice bath and stored in −80° C. before the activity of the enzyme was evaluated. For the use of such an assay, t=0 min was the reference point for 100% enzyme activity.
Assays of enzyme activity in formulations (% retention) were conducted to simulate a presoak condition in a beaker using the chemistry, temperature, and pH conditions relevant to manual warewash or presoak applications. Enzyme activity is an indicator of the stability of the enzyme in the detergent, specifically in an aqueous use solution within a sump (which is under conditions of high pH, temperature and dilution).
Enzyme activity under presoak or manual warewash conditions was traced quantitatively using a standard protease assay. Samples were prepared under bench top conditions, whereby the use solution from a detergent composition or detergent was obtained and maintained at a presoak or manual warewash temperature in a stirring water bath. After the time course for assessing enzyme stability is initiated, aliquots were taken at various time points and flash-frozen. A time=0 sample was prepared for each series by dissolving the detergent formulation at room temperature, mixing thoroughly, and flash freezing. Samples were thawed and diluted as necessary in an assay buffer usually for use in the protease assay. A glycine buffer at pH 9.0 is used here. The assay monitored the direct reaction of the protease on a small, commercially available peptidyl substrate, with liberation of the product providing correlation to the active enzyme content. The product was detected using a plate reader with an appreciable dynamic range (upper absorbance limit of the instrument >3.5). Enzyme activity levels were assessed relative to a calibration curve with average values for replicate tests used to map protease stability under presoak or manual warewash use conditions. Enzyme retention at each time point was calculated as the % enzyme activity relative to the time=0 sample.
The analysis by lipase and amylase assay was conducted similarly, except with a different substrate and buffers. For lipase activity, the substrate is p-nitrophenyl valerate, and for amylase, the substrate is an ethylidene substrate (EPS). The buffer used in lipase assay is TRIS (Tris(hydroxymethyl)aminomethane) buffer at pH 8.0, and in amylase assay HEPES (4-(2-hydroxyethyl)-1-piperazineethanesulfonic acid) buffer at pH 8.0.

[1] = base formula, phosphonate 0.3 wt-%, use solution at 120° F., time 0 min
[2] = base formula, phosphonate 0.3 wt-%, use solution at 120° F., time 5 min
[3] = base formula, phosphonate 0.3 wt-%, use solution at 120° F., time 10 min
[4] = base formula, phosphonate 0.3 wt-%, use solution at 120° F., time 20 min
[5] = base formula, phosphonate 0.3 wt-%, use solution at 120° F., time 40 min
[6] = base formula, phosphonate 0.3 wt-%, use solution at 120° F., time 60 min
[7] = base formula, phosphonate 0.3 wt-%, use solution at 120° F., time 90 min
[8] = base formula, phosphonate 0.3 wt-%, use solution at 120° F., time 120 min
[9] = base formula, phosphonate 0.3 wt-%, use solution at 120° F., time 150 min
[10] = base formula, phosphonate 0.3 wt-%, use solution at 120° F., time 180 min
[11] = base formula, phosphonate 0.3 wt-%, use solution at 120° F., time 210 min
[12] = base formula, phosphonate 0.3 wt-%, use solution at 120° F., time 240 min
[13] = base formula, phosphonate 0.6 wt-%, use solution at 120º F., time 0 min
[14] = base formula, phosphonate 0.6 wt-%, use solution at 120º F., time 5 min
[15] = base formula, phosphonate 0.6 wt-%, use solution at 120º F., time 10 min
[16] = base formula, phosphonate 0.6 wt-%, use solution at 120º F., time 20 min
[17] = base formula, phosphonate 0.6 wt-%, use solution at 120º F., time 40 min
[18] = base formula, phosphonate 0.6 wt-%, use solution at 120º F., time 60 min
[19] = base formula, phosphonate 0.6 wt-%, use solution at 120º F., time 90 min
[20] = base formula, phosphonate 0.6 wt-%, use solution at 120º F., time 120 min
[21] = base formula, phosphonate 0.6 wt-%, use solution at 120º F., time 150 min
[22] = base formula, phosphonate 0.6 wt-%, use solution at 120º F., time 180 min
[23] = base formula, phosphonate 0.6 wt-%, use solution at 120º F., time 210 min
[24] = base formula, phosphonate 0.6 wt-%, use solution at 120º F., time 240 min
[25] = base formula, phosphonate at 0.1% elemental phosphorus level, use solution at 120º F., time 0 min
[26] = base formula, phosphonate at 0.1% elemental phosphorus level, use solution at 120º F., time 5 min
[27] = base formula, phosphonate at 0.1% elemental phosphorus level, use solution at 120º F., time 10 min
[28] = base formula, phosphonate at 0.1% elemental phosphorus level, use solution at 120º F., time 40 min
[29] = base formula, phosphonate at 0.1% elemental phosphorus level, use solution at 120º F., time 60 min
[30] = base formula, phosphonate at 0.1% elemental phosphorus level, use solution at 120º F., time 90 min
[31] = base formula, phosphonate at 0.1% elemental phosphorus level, use solution at 120º F., time 120 min
[32] = base formula, phosphonate at 0.1% elemental phosphorus level, use solution at 120º F., time 150 min
[33] = base formula, phosphonate at 0.1% elemental phosphorus level, use solution at 120º F., time 180 min
[34] = base formula, phosphonate at 0.1% elemental phosphorus level, use solution at 120º F., time 210 min
[35] = base formula, phosphonate at 0.1% elemental phosphorus level, use solution at 120º F., time 240 min

Diglycolamine phosphonate [DGAP]
Relative Amylase Enzyme Activity (All Ash formula, phosphonate 0.3 wt-%, use solution at 120° F., time 0 min): 100.00% | Relative Amylase Enzyme Activity (All Ash formula, phosphonate 0.3 wt-%, use solution at 120° F., time 5 min): 89.94% | Relative Amylase Enzyme Activity (All Ash formula, phosphonate 0.3 wt-%, use solution at 120° F., time 10 min): 87.50% | Relative Amylase Enzyme Activity (All Ash formula, phosphonate 0.3 wt-%, use solution at 120° F., time 20 min): 88.87% | Relative Amylase Enzyme Activity (All Ash formula, phosphonate 0.3 wt-%, use solution at 120° F., time 40 min): 86.87% | Relative Amylase Enzyme Activity (All Ash formula, phosphonate 0.3 wt-%, use solution at 120° F., time 60 min): 82.06% | Relative Amylase Enzyme Activity (All Ash formula, phosphonate 0.3 wt-%, use solution at 120° F., time 90 min): 81.79% | Relative Amylase Enzyme Activity (All Ash formula, phosphonate 0.3 wt-%, use solution at 120° F., time 120 min): 75.74% | Relative Amylase Enzyme Activity (All Ash formula, phosphonate 0.3 wt-%, use solution at 120° F., time 150 min): 79.71% | Relative Amylase Enzyme Activity (All Ash formula, phosphonate 0.3 wt-%, use solution at 120° F., time 180 min): 65.75% | Relative Amylase Enzyme Activity (All Ash formula, phosphonate 0.3 wt-%, use solution at 120° F., time 210 min): 71.27% | Relative Amylase Enzyme Activity (All Ash formula, phosphonate 0.3 wt-%, use solution at 120° F., time 240 min): 70.12% | amylase stability in all ash formula (all ash formula, versus same composition with PBTC or HEDP without amine(s), FIG. 4D): more stable | Relative Amylase Enzyme Activity [1]: 39.01% | Relative Amylase Enzyme Activity [2]: 100.00% | Relative Amylase Enzyme Activity [3]: 113.48% | Relative Amylase Enzyme Activity [4]: 112.07% | Relative Amylase Enzyme Activity [5]: 110.36% | Relative Amylase Enzyme Activity [6]: 109.99% | Relative Amylase Enzyme Activity [7]: 118.04% | Relative Amylase Enzyme Activity [8]: 110.39% | Relative Amylase Enzyme Activity [9]: 111.92% | Relative Amylase Enzyme Activity [10]: 112.24% | Relative Amylase Enzyme Activity [11]: 115.96% | Relative Amylase Enzyme Activity [12]: 110.74% | Relative Amylase Enzyme Activity [13]: 100.00% | Relative Amylase Enzyme Activity [14]: 102.43% | Relative Amylase Enzyme Activity [15]: 95.89% | Relative Amylase Enzyme Activity [16]: 99.40% | Relative Amylase Enzyme Activity [17]: 97.26% | Relative Amylase Enzyme Activity [18]: 100.23% | Relative Amylase Enzyme Activity [19]: 95.37% | Relative Amylase Enzyme Activity [20]: 102.17% | Relative Amylase Enzyme Activity [21]: 102.37% | Relative Amylase Enzyme Activity [22]: 101.89% | Relative Amylase Enzyme Activity [23]: 102.69% | Relative Amylase Enzyme Activity [24]: 105.89% | Relative Amylase Enzyme Activity [25]: 100.00% | Relative Amylase Enzyme Activity [26]: 98.51% | Relative Amylase Enzyme Activity [27]: 108.49% | Relative Amylase Enzyme Activity [28]: 97.68% | Relative Amylase Enzyme Activity [29]: 97.62% | Relative Amylase Enzyme Activity [30]: 99.36% | Relative Amylase Enzyme Activity [31]: 92.67% | Relative Amylase Enzyme Activity [32]: 98.24% | Relative Amylase Enzyme Activity [33]: 93.89% | Relative Amylase Enzyme Activity [34]: 107.33% | Relative Amylase Enzyme Activity [35]: 103.75%

Polyamino Polyether Methylene Phosphonic Acid [PAPEMP]
Relative Amylase Enzyme Activity [1]: 45.92% | Relative Amylase Enzyme Activity [2]: 100.00% | Relative Amylase Enzyme Activity [3]: 101.33% | Relative Amylase Enzyme Activity [4]: 101.28% | Relative Amylase Enzyme Activity [5]: 89.91% | Relative Amylase Enzyme Activity [6]: 93.07% | Relative Amylase Enzyme Activity [7]: 89.58% | Relative Amylase Enzyme Activity [8]: 89.74% | Relative Amylase Enzyme Activity [9]: 92.85% | Relative Amylase Enzyme Activity [10]: 87.45% | Relative Amylase Enzyme Activity [11]: 93.95% | Relative Amylase Enzyme Activity [12]: 108.16% | Relative Amylase Enzyme Activity [13]: 100.00% | Relative Amylase Enzyme Activity [14]: 91.71% | Relative Amylase Enzyme Activity [15]: 99.05% | Relative Amylase Enzyme Activity [16]: 94.55% | Relative Amylase Enzyme Activity [17]: 97.22% | Relative Amylase Enzyme Activity [18]: 97.94% | Relative Amylase Enzyme Activity [19]: 101.28% | Relative Amylase Enzyme Activity [20]: 99.25% | Relative Amylase Enzyme Activity [21]: 105.34% | Relative Amylase Enzyme Activity [22]: 98.44% | Relative Amylase Enzyme Activity [23]: 101.64% | Relative Amylase Enzyme Activity [24]: 96.02% | Relative Amylase Enzyme Activity [25]: 100.00% | Relative Amylase Enzyme Activity [26]: 85.10% | Relative Amylase Enzyme Activity [27]: 95.50% | Relative Amylase Enzyme Activity (base formula, phosphonate at 0.1% elemental phosphorus level, use solution at 120º F., time 20 min): 96.02% | Relative Amylase Enzyme Activity [28]: 91.46% | Relative Amylase Enzyme Activity [29]: 97.42% | Relative Amylase Enzyme Activity [30]: 89.60% | Relative Amylase Enzyme Activity [31]: 99.26% | Relative Amylase Enzyme Activity [32]: 101.88% | Relative Amylase Enzyme Activity [33]: 91.85% | Relative Amylase Enzyme Activity [34]: 99.00% | Relative Amylase Enzyme Activity [35]: 96.59%
